Experimental data taken from US12157722B1, “Crystalline hydrochloride salts of N-ethyl-2-(5-fluoro-1H-indol-3-yl)-N-methylethan-1-amine” (Gilgamesh Pharmaceuticals, Inc., priority 2023, dated 2024).

Key:
[1] = Exposure of dry cake to humidity, solid form checked by XRPD; type: physicochemical; details: for XRPD pattern, dry cake exposed to humidity: monofumarate solids exposed to humidity (90% RH/30° C.)
[2] = Dynamic Vapor Sorption (DVS); type: physicochemical; details: 25° C., 75% RH
Procedure: Dynamic Vapor Sorption (DVS) was performed using a Q5000SA. The sample (5-15 mg) was loaded into a metallic quartz sample pan, suspended from a microbalance, and exposed to a humidified stream of nitrogen gas. Weight changes were relative to a matching empty reference pan opposite the sample, suspended from the microbalance. The sample was held for a minimum of 10 min at each level and only progressed to the next humidity level if there was <0.002% change in weight between measurements (interval: 5 s) or 45 min had elapsed (for 5-65% RH) or 2 h had elapsed (for 80 and 95% RH). The following programs were used: • 1—Equilibration at 50% RH • 2—50% to 5%. (50%, 35%, 20%, and 5%) • 3—5% to 95%(5%, 20%, 35%, 50%, 65%, 80%, and 95%) • 4—95% to 5%(95%, 80%, 65%, 50%, 35%, 20%, and 5%) • 5—5% to 50% (5%, 20%, 35%, and 50%) • 1—Equilibration at 50% RH • 2—50% to 2%. (50%, 40%, 30%, 20%, 10%, and 2%) • 3—2% to 75%(2%, 10%, 20%, 30%, 40%, 50%, 60%, 70% and 75%) • 4—75% to 2%(75%, 70%, 60%, 50%, 40%, 30%, 20%, 10% and 2%) • 5—2% to 50% (2%, 10%, 20%, 30%, 40% and 50%) • 1—Equilibration at 50% RH • 2—50% to 2%.(50%, 40%, 30%, 20%, 10%, and 2%) • 3—2% to 65% (2%, 10%, 20%, 30%, 40%, 50%, 60% and 65%) • 4—65% to 2% (65%, 60%, 50%, 40%, 30%, 20%, 10% and 2%) • 5—2% to 50% (2%, 10%, 20%, 30%, 40% and 50%). […]

Row | SMILES | XRPD pattern, dry cake exposed to humidity [1] | also measured
1 | CCN(C)CCc1c[nH]c2ccc(F)cc12.O=C(O)/C=C/C(=O)O [monofumarate Form 2, N-ethyl-2-(5-fluoro-1H-indol-3-yl)-N-methylethan-1-amine monofumarate Form 2] | slowly converted to Form 1 | –
2 | CCN(C)CCc1c[nH]c2ccc(F)cc12.O=C(O)/C=C/C(=O)O [monofumarate Form 1, N-ethyl-2-(5-fluoro-1H-indol-3-yl)-N-methylethan-1-amine monofumarate Form 1] | Form 1 | –
3 | CCN(C)CCc1c[nH]c2ccc(F)cc12.CCN(C)CCc1c[nH]c2ccc(F)cc12.O=C(O)/C=C/C(=O)O [hemifumarate Form 1, N-ethyl-2-(5-fluoro-1H-indol-3-yl)-N-methylethan-1-amine hemifumarate Form 1] | – | XRPD pattern, Humid ([1]; hemifumarate dry cake from EtOH:MTBE (1:1 vol.) exposed to humidity): deliquescent
4 | CCN(C)CCc1c[nH]c2ccc(F)cc12.Cl [hydrochloride Form 1, N-ethyl-2-(5-fluoro-1H-indol-3-yl)-N-methylethan-1-amine hydrochloride Form 1] | – | DVS isotherm, equilibration behaviour [2]: did not reach equilibrium at 75% RH
